Earlier results in patent publication US8361760B2, “Microbial production of 3-hydroxyacids from glucose and glycolate” (Massachusetts Institute of Technology, priority 2009, dated 2013).

System: CoA-transferase
Parameters: Relative activity: concentration or dose not given beside the values
Conditions: CoA-transferase activity with carboxylic acid added; for Relative activity: relative to None = 100; for Specific Activity: None = 34.1 units/mg

SMILES	Relative activity [%]	Specific Activity [units/mg]
C=CC(=O)O [Acrylate]	37	12.7
C[C@@H](O)C(=O)O [(R)-Lactate]	27	9.1
O=C(O)/C=C/CC(=O)O [(E)-Glutaconate]	94	32.1
O=C(O)/C=C/C(=O)O [Fumarate]	96	32.8
C[C@H](O)C(=O)O [(S)-Lactate]	46	15.8
O=C(O)CC[C@@H](O)C(=O)O [(R)-2-Hydroxyglutarate]	87	29.6
CCC(=O)O [Propionate]	20	6.8
O=C(O)CCC(=O)O [Succinate]	87	29.6
